Results: ChEMBL document CHEMBL5532657, “Serendipitous discovery of Class I HDAC inhibitors from rational design of molecular glue degraders targeting HDAC” (Eur J Med Chem, 2024)
pIC50: −log10 of the molar value. The source made the active and inactive calls. The calls are words filed in the database; no cut-off is given here.

Columns and labels:
[1] = target: T1, Protein deacetylase HDAC6 (Homo sapiens) (UniProt Q9UBN7); experiment: Induction of HDAC6 degradation in human RS4-11 cells at 0.5 to 10 uM incubated for 12 hrs by Western blotting analysis; format: cell-based; conditions: dose 0.5-10 µM
T1 sequence (whole entry): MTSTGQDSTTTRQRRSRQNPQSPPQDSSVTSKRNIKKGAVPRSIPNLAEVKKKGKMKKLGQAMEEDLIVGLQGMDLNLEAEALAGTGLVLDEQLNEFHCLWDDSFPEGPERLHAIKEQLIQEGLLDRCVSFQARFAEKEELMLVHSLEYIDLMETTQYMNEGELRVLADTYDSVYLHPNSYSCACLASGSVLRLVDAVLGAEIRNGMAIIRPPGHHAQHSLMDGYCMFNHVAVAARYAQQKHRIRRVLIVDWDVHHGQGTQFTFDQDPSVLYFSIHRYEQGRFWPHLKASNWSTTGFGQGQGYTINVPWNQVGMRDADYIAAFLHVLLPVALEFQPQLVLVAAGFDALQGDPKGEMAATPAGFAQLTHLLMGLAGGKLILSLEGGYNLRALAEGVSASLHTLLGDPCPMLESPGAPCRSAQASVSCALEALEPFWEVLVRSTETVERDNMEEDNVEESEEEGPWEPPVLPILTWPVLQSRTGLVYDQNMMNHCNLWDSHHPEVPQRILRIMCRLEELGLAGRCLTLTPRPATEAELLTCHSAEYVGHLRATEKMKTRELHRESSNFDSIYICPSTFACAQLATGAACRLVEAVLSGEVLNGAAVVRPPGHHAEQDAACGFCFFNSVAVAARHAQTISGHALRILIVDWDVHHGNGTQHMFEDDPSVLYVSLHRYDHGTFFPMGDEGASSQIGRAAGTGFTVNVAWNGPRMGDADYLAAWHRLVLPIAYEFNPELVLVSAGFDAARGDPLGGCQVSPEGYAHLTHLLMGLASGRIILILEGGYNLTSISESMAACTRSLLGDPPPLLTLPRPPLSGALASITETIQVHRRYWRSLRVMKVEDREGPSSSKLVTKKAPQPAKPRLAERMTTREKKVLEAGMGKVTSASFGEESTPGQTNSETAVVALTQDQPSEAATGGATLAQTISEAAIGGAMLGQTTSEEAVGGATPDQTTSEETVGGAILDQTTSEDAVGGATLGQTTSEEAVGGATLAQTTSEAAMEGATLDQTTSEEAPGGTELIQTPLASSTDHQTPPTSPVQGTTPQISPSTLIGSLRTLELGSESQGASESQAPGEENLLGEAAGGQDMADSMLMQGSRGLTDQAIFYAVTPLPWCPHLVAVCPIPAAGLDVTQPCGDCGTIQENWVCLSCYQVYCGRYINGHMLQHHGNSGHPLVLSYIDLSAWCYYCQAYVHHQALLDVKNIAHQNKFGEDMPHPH

[2] = target: DNA-binding protein Ikaros (Homo sapiens) (UniProt Q13422); experiment: Induction of IKZF1 degradation in human RS4-11 cells at 1 to 10 uM by Western blotting analysis; format: cell-based; conditions: dose 1-10 µM
Histone deacetylase 7 = target: T2, Histone deacetylase 7 (Homo sapiens, UniProt Q8WUI4); experiment: Inhibition of HDAC7 in human HeLa cells nuclear extract using BocLys(acetyl)-AMC as substrate incubated for 1 hr by fluorescence plate reader analysis; format: subcellular, Nucleus
T2 sequence (Q8WUI4 whole entry): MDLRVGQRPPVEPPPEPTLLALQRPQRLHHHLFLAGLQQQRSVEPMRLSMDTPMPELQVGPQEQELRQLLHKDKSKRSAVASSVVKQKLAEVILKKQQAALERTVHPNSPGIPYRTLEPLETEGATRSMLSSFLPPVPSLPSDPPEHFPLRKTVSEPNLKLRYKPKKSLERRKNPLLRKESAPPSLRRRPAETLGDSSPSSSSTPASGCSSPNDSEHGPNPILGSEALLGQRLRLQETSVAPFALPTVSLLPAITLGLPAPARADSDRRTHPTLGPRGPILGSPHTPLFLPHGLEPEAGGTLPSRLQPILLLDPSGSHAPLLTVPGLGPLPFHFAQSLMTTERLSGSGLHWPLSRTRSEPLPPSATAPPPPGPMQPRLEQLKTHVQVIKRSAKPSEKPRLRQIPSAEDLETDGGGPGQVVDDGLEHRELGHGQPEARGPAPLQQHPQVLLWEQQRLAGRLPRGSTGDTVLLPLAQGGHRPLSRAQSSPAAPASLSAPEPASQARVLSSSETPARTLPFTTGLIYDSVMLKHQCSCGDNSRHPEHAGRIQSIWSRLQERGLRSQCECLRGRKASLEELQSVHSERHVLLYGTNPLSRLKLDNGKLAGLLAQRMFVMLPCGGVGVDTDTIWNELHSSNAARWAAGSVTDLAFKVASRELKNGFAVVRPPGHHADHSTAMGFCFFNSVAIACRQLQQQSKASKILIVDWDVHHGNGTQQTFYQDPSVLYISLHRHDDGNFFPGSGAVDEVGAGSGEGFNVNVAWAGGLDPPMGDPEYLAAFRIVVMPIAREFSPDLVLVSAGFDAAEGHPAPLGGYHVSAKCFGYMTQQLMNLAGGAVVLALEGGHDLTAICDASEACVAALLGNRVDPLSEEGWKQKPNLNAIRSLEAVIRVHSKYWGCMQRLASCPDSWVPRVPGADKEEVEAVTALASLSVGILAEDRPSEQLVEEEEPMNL

Histone deacetylase 11 = target: T3, Histone deacetylase 11 (Homo sapiens, UniProt Q96DB2); experiment: Inhibition of HDAC11 in human HeLa cells nuclear extract using BocLys(acetyl)-AMC as substrate incubated for 1 hr by fluorescence plate reader analysis; format: subcellular, Nucleus
T3 sequence (Q96DB2 whole entry): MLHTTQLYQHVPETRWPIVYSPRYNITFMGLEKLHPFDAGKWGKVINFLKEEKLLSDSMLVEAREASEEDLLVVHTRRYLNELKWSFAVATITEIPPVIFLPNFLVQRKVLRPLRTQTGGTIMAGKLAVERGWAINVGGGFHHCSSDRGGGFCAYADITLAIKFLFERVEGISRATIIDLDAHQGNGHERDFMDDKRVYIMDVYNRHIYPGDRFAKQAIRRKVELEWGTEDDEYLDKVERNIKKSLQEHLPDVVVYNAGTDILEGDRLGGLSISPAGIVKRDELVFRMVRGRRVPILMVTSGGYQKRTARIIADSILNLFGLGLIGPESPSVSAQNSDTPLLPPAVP

HCT-116 = experiment: Antiproliferative activity against human HCT-116 cells assessed as cell growth inhibition at 5 uM incubated for 48 hrs by CCK-8 assay; format: functional, cell-based
K562 [3] = experiment: Antiproliferative activity against human K562 cells assessed as cell growth inhibition at 5 uM incubated for 48 hrs by CCK-8 assay; format: functional, cell-based
U-266 = experiment: Antiproliferative activity against human U-266 cells assessed as cell growth inhibition incubated for 48 hrs by CCK-8 assay; format: functional, cell-based; conditions: U-266, 48 h
K562 [4] = experiment: Antiproliferative activity against human K562 cells assessed as cell growth inhibition incubated for 48 hrs by CCK-8 assay; format: functional, cell-based; conditions: K562, 48 h
[5] = target: T1, Protein deacetylase HDAC6 (Homo sapiens); experiment: Inhibition of HDAC6 in human RS4-11 cells assessed as upregulation of alpha-tubulin acetylation at 1 to 10 uM by Western blot assay; format: cell-based; conditions: dose 1-10 µM

Sequence of DNA-binding protein Ikaros (Homo sapiens) (Q13422 whole entry): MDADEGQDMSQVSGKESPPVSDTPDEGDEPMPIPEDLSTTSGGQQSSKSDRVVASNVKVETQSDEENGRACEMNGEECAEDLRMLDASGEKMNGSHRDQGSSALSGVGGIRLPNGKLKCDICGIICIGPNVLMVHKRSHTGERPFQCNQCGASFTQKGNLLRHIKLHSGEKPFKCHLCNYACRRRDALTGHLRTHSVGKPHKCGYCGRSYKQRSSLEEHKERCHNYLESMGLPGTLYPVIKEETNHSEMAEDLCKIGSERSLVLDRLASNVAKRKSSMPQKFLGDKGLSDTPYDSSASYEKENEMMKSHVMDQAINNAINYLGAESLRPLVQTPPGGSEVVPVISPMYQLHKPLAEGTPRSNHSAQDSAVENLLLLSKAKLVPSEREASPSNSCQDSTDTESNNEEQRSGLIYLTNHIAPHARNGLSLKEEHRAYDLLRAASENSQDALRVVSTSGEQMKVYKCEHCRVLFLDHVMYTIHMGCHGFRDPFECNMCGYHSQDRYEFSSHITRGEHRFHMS

Activity [1] | Activity [2] | pIC50 (Histone deacetylase 7) | pIC50 (Histone deacetylase 11) | pIC50 (K562 [4]) | Activity [5] | SMILES | Activity (HCT-116) | Activity (K562 [3]) | pIC50 (U-266)
inactive | Active | < 5.70 | < 5.70 | 5.27 | inactive | Nc1cc(F)ccc1NC(=O)c1ccc(CNc2cccc3c2C(=O)N(C2CCC(=O)NC2=O)C3=O)cc1 (stereo not drawn) | inactive | Active | 5.53
inactive | Active | < 5.70 | < 5.70 | 5.26 | inactive | Nc1ccccc1NC(=O)c1ccc(CNc2cccc3c2C(=O)N(C2CCC(=O)NC2=O)C3=O)cc1 (stereo not drawn) | inactive | Active | 5.31
